Experimental data reported in US6455303B1, “Detection of biologically active molecules by use of pre-activated cell-based biosensors in liquid-based separation systems” (Cellectricon AB, priority 1997, dated 2002).

Legend:
[1] = tested on: AMPA receptors; experiment: Capillary electrophoresis-patch clamp detection, kainate pre-activated whole-cell biosensor; assay type: cell-based; details: 100 μM KA in capillary; holding potential −70 mV; interneurons from rat olfactory bulb
Description: Separation of mixtures of glutamate receptor antagonists were performed using cell-based biosensor-compatible buffers. A cell-based biosensor-compatible buffer is a buffer which effectively keeps the cell-based biosensor in a functional and viable condition during the course of the experiment or the analysis procedure. slightly modified standard HEPES-saline buffer containing 140 mM NaCl, 5 mM KCl, 1 mM MgCl2, 1 mM CaCl2, 10 mM glucose and 10 mM HEPES (pH 7.4, NaOH) was used as extracellular and capillary buffer in examples 1 and 2 except in the separation of Mg^2+ where MgCl2 were omitted. As described in the examples, the preferred agonist were only—included in the capillary solution. […]
(§1) The patch clamp detection was performed in the whole-cell configuration as described by Hamill, et al. (see Hamill, O. P., et al, Pflug. Arch. 391:85, 1981). […] Patch pipettes were fabricated from thick-walled borosilicate glass (code no GC150-10, Clark Electromedical Instruments, Pangboume, Reading, UK). […]
(§2) The signals were recorded with a patch clamp amplifier (Model List L/M EPC-7, List-Electronic, Darmstadt, Germany), digitized (20 kHz, PCM 2 A/D VCR adapter, Medical Systems Corp., NY, USA), and stored on videotape. […]

[2] = tested on: N-methyl-D-aspartate receptor; experiment: Capillary electrophoresis-patch clamp detection, NMDA/glycine pre-activated whole-cell biosensor; assay type: cell-based, rat
Description: Separation of mixtures of glutamate receptor antagonists were performed using cell-based biosensor-compatible buffers. A cell-based biosensor-compatible buffer is a buffer which effectively keeps the cell-based biosensor in a functional and viable condition during the course of the experiment or the analysis procedure. slightly modified standard HEPES-saline buffer containing 140 mM NaCl, 5 mM KCl, 1 mM MgCl2, 1 mM CaCl2, 10 mM glucose and 10 mM HEPES (pH 7.4, NaOH) was used as extracellular and capillary buffer in examples 1 and 2 except in the separation of Mg^2+ where MgCl2 were omitted. As described in the examples, the preferred agonist were only—included in the capillary solution.
The cells used were interneurons from rat olfactory bulb acutely isolated according to the procedures described by Jacobson et al. (see Jacobson, I., Neurosci. Res. Comm. 8:11, 1991, and Jacobson, I., et al., Neurosci. Res. Comm. 10:177, 1992).
Newborn or adult rats (10-200 g) were anaesthetized with halothane (ISC Chemicals Ltd., Avonmouth, England) and decapitated. The olfactory bulbs were dissected and sliced into four pieces and placed in an incubation chamber. The chamber contained proteases from Aspergillus oryzae (2.5 mg/ml) which were dissolved in pre-warmed (32° C.) HEPES-saline buffer (see above). After 25-30 min., the slices were washed with the same buffer solution for 20 min. The solutions were constantly perfused with 95% O2 and 5% CO2 during both the enzymatic treatment arid the washing. […]
as §1, §2

[3] = voltage ramp −80 to +40 mV, NMDA receptor response attenuated by separated Mg^2+

| Compound | effect on KA-activated current responses [1] | effect on N-methyl-D-aspartate-activated current responses ([2]; Mg^2+ 2 mM injected, 200 μM NMDA and 20 μM glycine in capillary, holding potential −70 mV, interneurons from rat olfactory bulb) | current-to-voltage relationship: inward currents at membrane resting potentials [2, 3] | current-to-voltage relationship: outward currents at positive potentials [2, 3] |
| --- | --- | --- | --- | --- |
| N#Cc1cc2c(cc1[N+](=O)[O-])=NC(=O)C(=O)N=2 [CNQX, 6-cyano-7-nitroquinoxaline-2,3-dione] | transient attenuations of KA-activated current responses | – | – | – |
| O=C(O)c1nc2cc(Cl)c(Cl)cc2nc1O [DCQXC, 6,7-dichloro-3-hydroxy-2-quinoxaline-carboxylic acid] | transient attenuations of KA-activated current responses | – | – | – |
| [Mg+2] [Mg^2+] | – | transient Gaussian-distributed attenuation of N-methyl-D-aspartate-activated current responses | blockade of inward currents at membrane resting potentials | unaltered outward currents at positive potentials |
